# Results as given in patent publication US20250179017A1 (GUANGDONG NEWOPP BIOPHARMACEUTICALS CO., LTD., priority 2022, published 2025).
# Biological target: T1, human EP2 (PTGER2) (Homo sapiens, UniProt P43116)
# T1 construct: Cayman Chemical (Human EP2 Reporter Assay Kit)
# Assay: EP2 antagonist assay (HEK-293 CNG membrane potential cAMP assay / 293T SEAP reporter assay, PGE2-stimulated)
# Assay type: cell-based
# Details: EP2 antagonist activity; concentration for 50% inhibition of signal compared to DMSO
# Procedure, shortened: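 Two formats. In a CRE-SEAP reporter assay, reverse-transfected 293T cells received compound with PGE2 (13 nM final) for 6-8 h, then luminescence was read. In the ACTOne CNG format, HEK-293 cells were preincubated with compound for 15 min at RT, stimulated with 5 nM PGE2 for 30 min, and read by membrane-potential dye fluorescence. IC50 was taken versus DMSO.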
# T1 sequence (P43116 whole entry): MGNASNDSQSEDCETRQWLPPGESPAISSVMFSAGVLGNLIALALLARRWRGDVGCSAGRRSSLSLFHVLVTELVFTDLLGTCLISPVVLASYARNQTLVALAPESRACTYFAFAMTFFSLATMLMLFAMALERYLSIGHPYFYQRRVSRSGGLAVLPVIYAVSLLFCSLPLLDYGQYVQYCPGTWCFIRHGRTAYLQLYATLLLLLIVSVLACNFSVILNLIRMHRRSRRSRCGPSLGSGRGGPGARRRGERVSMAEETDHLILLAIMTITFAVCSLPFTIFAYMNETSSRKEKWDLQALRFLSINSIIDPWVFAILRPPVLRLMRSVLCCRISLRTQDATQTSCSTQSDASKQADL
row,Structure (SMILES),IC50 [nM]
1,"O=C(O)c1ccc(CNC(=O)c2cc(-c3cc(F)cc(F)c3)cc3ncn(Cc4ccc(C(F)(F)F)cc4)c23)cc1 [Example 173, 4-((5-(3,5-difluorophenyl)-1-(4-(trifluoromethyl)benzyl)-1H-benzo[d]imidazole-7-carboxamido)methyl)benzoic acid]",< 100
2,"O=C(O)c1ccc(CNC(=O)c2cc(-c3ccccc3)cc3nnn(Cc4ccc(C(F)(F)F)cc4)c23)cc1 [Example 174, ((5-phenyl-1-(4-(trifluoromethyl)benzyl)-1H-benzo[d][1,2,3]triazole-7-carboxamido)methyl)benzoic acid]",< 100
3,"O=C(O)c1ccc(CNC(=O)c2cc(-c3ccccc3)cc3ccn(Cc4cccc5ccccc45)c23)cc1 [Example 177, 44-((1-(naphthalen-1-ylmethyl)-5-phenyl-1H-indole-7-carboxamido)methyl)benzoic acid]",< 100
4,"C[C@H](NC(=O)c1cc(-c2ccccc2)cc2nnn(Cc3ccc(C(F)(F)F)cc3)c12)c1ccc(C(=O)O)cc1 [Example 179, (S)-4-(1-(5-phenyl-1-(4-(trifluoromethyl)benzyl)-1H-benzo[d][1,2,3]triazole-7-carboxamido)ethyl)benzoic acid]",< 100
5,"C[C@H](NC(=O)c1cc(-c2cc(F)cc(F)c2)cc2nnn(Cc3ccc(C(F)(F)F)cc3)c12)c1ccc(C(=O)O)cc1 [Example 181, (S)-4-(1-(5-(3,5-difluorophenyl)-1-(4-(trifluoromethyl)benzyl)-1H-benzo[d][1,2,3]triazole-7-carboxamido)ethyl)benzoic acid]",≥ 1000
6,"O=C(O)c1ccc(CNC(=O)c2ccc(Nc3ccc(F)cc3)c3cnn(Cc4ccc5ccccc5c4)c23)cc1 [Example 182, 4-((4-((4-fluorophenyl)amino)-1-(naphthalen-2-ylmethyl)-1H-indazole-7-carboxamido)methyl)benzoic acid]",≥ 1000
7,"O=C(O)c1ccc(CNC(=O)c2ccc(Nc3ccc(F)cc3)c3ccn(Cc4ccc5ccccc5c4)c23)cc1 [Example 183, ((4-((4-fluorophenyl)amino)-1-(naphthalen-2-ylmethyl)-1H-indole-7-carboxamido)methyl)benzoic acid]",< 100
8,"O=C(O)c1ccc(CNC(=O)c2cc(-c3ccc(F)cc3)cc3cnn(Cc4ccc(-c5ccc(F)cc5)cc4)c23)cc1 [Example 185, 4-((1-((4′-fluoro-[1,1′-biphenyl]-4-yl)methyl)-5-(4-fluorophenyl)-1H-indazole-7-carboxamido)methyl)benzoic acid]",< 100
9,"O=C(O)c1ccc(CNC(=O)c2cc(-c3cc(F)cc(F)c3)cc3cnn(Cc4ccc(-c5ccc(F)cc5)cc4)c23)cc1 [Example 186, 4-((5-(3,5-difluorophenyl)-1-((4′-fluoro-[1,1′-biphenyl]-4-yl)methyl)-1H-indazole-7-carboxamido)methyl)benzoic acid]",< 100
10,"O=C(O)c1ccc(CNC(=O)c2cc(-c3ccc(F)c(F)c3)cc3cnn(Cc4ccc(-c5ccc(F)cc5)cc4)c23)cc1 [Example 187, 4-((5-(3,4-difluorophenyl)-1-((4′-fluoro-[1,1′-biphenyl]-4-yl)methyl)-1H-indazole-7-carboxamido)methyl)benzoic acid]",< 100
11,"O=C(O)c1ccc(CNC(=O)c2cc(-c3cc(F)cc(F)c3)cc3cnn(Cc4ccc(-c5ccccc5)cc4)c23)cc1 [Example 192, 4-((1-([1,1′-biphenyl]-4-ylmethyl)-5-(3,5-difluorophenyl)-1H-indazole-7-carboxamido)methyl)benzoic acid]",< 100
12,"O=C(O)c1ccc(CNC(=O)c2cc(-c3ccc(F)c(F)c3)cc3cnn(Cc4ccc(-c5ccccc5)cc4)c23)cc1 [Example 193, 4-((1-([1,1′-biphenyl]-4-ylmethyl)-5-(3,4-difluorophenyl)-1H-indazole-7-carboxamido)methyl)benzoic acid]",< 100
13,"C[C@H](NC(=O)c1cc(-c2ccc(F)cc2)cc2cnn(Cc3ccc(C(F)(F)F)cc3)c12)c1ccc(C(=O)O)cc1 [Example 194, (S)-4-(1-(5-(4-fluorophenyl)-1-(4-(trifluoromethyl)benzyl)-1H-indazole-7-carboxamido)ethyl)benzoic acid]",< 100
14,"C[C@H](NC(=O)c1cc(-c2ccc(F)c(F)c2)cc2cnn(Cc3ccc(C(F)(F)F)cc3)c12)c1ccc(C(=O)O)cc1 [Example 195, (S)-4-(1-(5-(3,4-difluorophenyl)-1-(4-(trifluoromethyl)benzyl)-1H-indazole-7-carboxamido)ethyl)benzoic acid]",< 100
15,"C[C@H](NC(=O)c1cc(-c2ccccc2)cc2cnn([C@H](C)c3ccc4ccccc4c3)c12)c1ccc(C(=O)O)cc1 [Example 196, 4-((S)-1-(1-((R)-1-(naphthalen-2-yl)ethyl)-5-phenyl-1H-indazole-7-carboxamido)ethyl)benzoic acid]",< 100
16,"C[C@H](NC(=O)c1cc(-c2ccccc2)cc2cnn([C@@H](C)c3ccc4ccccc4c3)c12)c1ccc(C(=O)O)cc1 [Example 197, 4-((S)-1-(1-((S)-1-(naphthalen-2-yl)ethyl)-5-phenyl-1H-indazole-7-carboxamido)ethyl)benzoic acid]",100 to 1000
17,"C[C@H](NC(=O)c1cc(-c2ccccc2)cc2cnn(Cc3ccc(-c4ccccc4)cc3)c12)c1ccc(C(=O)O)cc1 [Example 198, (S)-4-(1-(1-([1,1′-biphenyl]-4-ylmethyl)-5-phenyl-1H-indazole-7-carboxamido)ethyl)benzoic acid]",< 100
18,"C[C@H](NC(=O)c1cc(-c2ccc(F)cc2)cc2cnn(Cc3ccc(-c4ccccc4)cc3)c12)c1ccc(C(=O)O)cc1 [Example 199, (S)-4-(1-(1-([1,1′-biphenyl]-4-ylmethyl)-5-(4-fluorophenyl)-1H-indazole-7-carboxamido)ethyl)benzoic acid]",< 100
19,"C[C@H](NC(=O)c1cc(-c2cc(F)cc(F)c2)cc2cnn(Cc3ccc(-c4ccccc4)cc3)c12)c1ccc(C(=O)O)cc1 [Example 200, (S)-4-(1-(1-([1,1′-biphenyl]-4-ylmethyl)-5-(3,5-difluorophenyl)-1H-indazole-7-carboxamido)ethyl)benzoic acid]",< 100
20,"C[C@H](NC(=O)c1cc(-c2ccc(F)c(F)c2)cc2cnn(Cc3ccc(-c4ccccc4)cc3)c12)c1ccc(C(=O)O)cc1 [Example 201, (S)-4-(1-(1-([1,1′-biphenyl]-4-ylmethyl)-5-(3,4-difluorophenyl)-1H-indazole-7-carboxamido)ethyl)benzoic acid]",< 100
21,"C[C@H](NC(=O)c1cc(-c2ccccc2)cc2cnn(Cc3ccc(-c4ccc(F)cc4)cc3)c12)c1ccc(C(=O)O)cc1 [Example 202, (S)-4-(1-(1-((4′-fluoro-[1,1′-biphenyl]-4-yl)methyl)-5-phenyl-1H-indazole-7-carboxamido)ethyl)benzoic acid]",< 100
22,"C[C@H](NC(=O)c1cc(-c2ccc(F)cc2)cc2cnn(Cc3ccc(-c4ccc(F)cc4)cc3)c12)c1ccc(C(=O)O)cc1 [Example 203, (S)-4-(1-(1-((4′-fluoro-[1,1′-biphenyl]-4-yl)methyl)-5-(4-fluorophenyl)-1H-indazole-7-carboxamido)ethyl)benzoic acid]",< 100
23,"C[C@H](NC(=O)c1cc(-c2cc(F)cc(F)c2)cc2cnn(Cc3ccc(-c4ccc(F)cc4)cc3)c12)c1ccc(C(=O)O)cc1 [Example 204, (S)-4-(1-(5-(3,5-difluorophenyl)-1-((4′-fluoro-[1,1′-biphenyl]-4-yl)methyl)-1H-indazole-7-carboxamido)ethyl)benzoic acid]",< 100
